Data taken from ChEMBL document CHEMBL4052762, “Synthesis and biological evaluation of pyrrole-based chalcones as CYP1 enzyme inhibitors, for possible prevention of cancer and overcoming cisplatin resistance” (Bioorg Med Chem Lett, 2017).
Values belong to the compound of their own block, whether it stands above or below them.

Assays:
Homo sapiens [1] = species on record: Homo sapiens; assay: Selectivity ratio of IC50 for human CYP3A4 bound to yeast microsomal membrane to IC50 for human CYP1A2 bound to yeast microsomal membrane
Homo sapiens [2] = species on record: Homo sapiens; assay: Selectivity ratio of IC50 for human CYP2D6 bound to yeast microsomal membrane to IC50 for human CYP1A2 bound to yeast microsomal membrane
[3] = Selectivity ratio of IC50 for human CYP2C19 expressed in HEK293 cells to IC50 for human CYP1B1 expressed in HEK293 cells
[4] = Selectivity ratio of IC50 for human CYP2D6 expressed in HEK293 cells to IC50 for human CYP1B1 expressed in HEK293 cells
Homo sapiens [5] = species on record: Homo sapiens; assay: Selectivity ratio of IC50 for human CYP3A4 bound to yeast microsomal membrane to IC50 for human CYP1A1 bound to yeast microsomal membrane
Cytochrome P450 1A1 = biological target: T1, Cytochrome P450 1A1 (Homo sapiens, UniProt P04798); assay: Inhibition of human CYP1A1 transfected in HEK293 cells assessed as protection from CYP1A1 mediated B[a]P toxicity at 8 times IC50 by MTT assay; type: cell-based
T1 sequence (P04798 whole entry): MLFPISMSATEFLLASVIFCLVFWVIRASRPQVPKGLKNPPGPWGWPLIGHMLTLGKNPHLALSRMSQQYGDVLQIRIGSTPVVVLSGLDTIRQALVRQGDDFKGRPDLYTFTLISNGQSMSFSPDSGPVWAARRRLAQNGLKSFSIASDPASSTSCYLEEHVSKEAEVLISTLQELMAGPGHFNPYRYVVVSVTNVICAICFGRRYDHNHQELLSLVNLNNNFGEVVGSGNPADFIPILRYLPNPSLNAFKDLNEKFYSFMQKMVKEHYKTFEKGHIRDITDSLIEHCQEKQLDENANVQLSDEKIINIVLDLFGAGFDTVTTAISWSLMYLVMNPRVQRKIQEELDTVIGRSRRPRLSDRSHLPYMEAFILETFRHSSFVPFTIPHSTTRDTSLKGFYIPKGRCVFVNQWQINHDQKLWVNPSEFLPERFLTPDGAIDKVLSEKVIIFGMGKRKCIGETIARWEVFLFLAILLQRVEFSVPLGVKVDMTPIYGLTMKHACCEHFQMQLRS

Homo sapiens [6] = species on record: Homo sapiens; assay: Selectivity ratio of IC50 for human CYP2D6 bound to yeast microsomal membrane to IC50 for human CYP1B1 bound to yeast microsomal membrane
Homo sapiens [7] = species on record: Homo sapiens; assay: Selectivity ratio of IC50 for human CYP2C9 bound to yeast microsomal membrane to IC50 for human CYP1A1 bound to yeast microsomal membrane
[8] = Selectivity ratio of IC50 for human CYP2C9 expressed in HEK293 cells to IC50 for human CYP1B1 expressed in HEK293 cells
Homo sapiens [9] = species on record: Homo sapiens; assay: Selectivity ratio of IC50 for human CYP2C9 bound to yeast microsomal membrane to IC50 for human CYP1B1 bound to yeast microsomal membrane
[10] = biological target: T2, Aryl hydrocarbon receptor (Homo sapiens, UniProt P35869); assay: Antagonist activity at human AhR expressed in Saccharomyces cerevisiae W303-1A (ATCC 208352) transformed with an episomal plasmid containing a minimal CYC1 promoter, with a concatemer of five XRE enhancer sequences, linked to eGFP reporter gene and co-expressing ARNT assessed as inhibition of B[a]P agonist induced XRE-driven eGFP expression after 18 hrs by fluorescence assay; details: for inhibition (INH): human, 18 h
T2 sequence (P35869 whole entry): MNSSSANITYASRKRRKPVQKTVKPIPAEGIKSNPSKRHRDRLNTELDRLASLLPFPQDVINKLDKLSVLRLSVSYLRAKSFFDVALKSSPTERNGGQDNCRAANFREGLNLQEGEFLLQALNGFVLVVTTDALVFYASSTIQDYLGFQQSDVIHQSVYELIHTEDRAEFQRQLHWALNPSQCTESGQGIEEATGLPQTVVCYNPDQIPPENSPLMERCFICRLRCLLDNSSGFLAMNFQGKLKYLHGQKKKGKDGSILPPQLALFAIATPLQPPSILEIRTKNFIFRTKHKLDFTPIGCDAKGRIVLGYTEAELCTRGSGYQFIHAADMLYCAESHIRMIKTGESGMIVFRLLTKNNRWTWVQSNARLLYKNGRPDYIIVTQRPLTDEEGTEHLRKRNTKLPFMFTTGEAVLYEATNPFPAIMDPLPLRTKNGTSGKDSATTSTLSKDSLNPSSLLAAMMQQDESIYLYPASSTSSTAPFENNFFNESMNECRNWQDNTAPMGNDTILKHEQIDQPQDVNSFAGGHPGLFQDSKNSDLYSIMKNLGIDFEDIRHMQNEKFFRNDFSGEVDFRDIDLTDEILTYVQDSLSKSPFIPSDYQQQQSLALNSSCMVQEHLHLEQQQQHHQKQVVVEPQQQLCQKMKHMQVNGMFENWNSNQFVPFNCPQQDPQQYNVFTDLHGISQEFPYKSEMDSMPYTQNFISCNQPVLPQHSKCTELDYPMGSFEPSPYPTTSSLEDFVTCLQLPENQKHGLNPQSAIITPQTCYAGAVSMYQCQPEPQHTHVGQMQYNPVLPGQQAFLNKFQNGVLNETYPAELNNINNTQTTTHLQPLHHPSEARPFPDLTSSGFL

[11] = Selectivity ratio of IC50 for human CYP3A4 expressed in HEK293 cells to IC50 for human CYP1A1 expressed in HEK293 cells
[12] = Selectivity ratio of IC50 for human CYP3A4 expressed in HEK293 cells to IC50 for human CYP1A2 expressed in HEK293 cells
Homo sapiens [13] = species on record: Homo sapiens; assay: Selectivity ratio of IC50 for human CYP3A4 bound to yeast microsomal membrane to IC50 for human CYP1B1 bound to yeast microsomal membrane
[14] = Selectivity ratio of IC50 for human CYP2D6 expressed in HEK293 cells to IC50 for human CYP1A2 expressed in HEK293 cells
[15] = Selectivity ratio of IC50 for human CYP2D6 expressed in HEK293 cells to IC50 for human CYP1A1 expressed in HEK293 cells
Homo sapiens [16] = species on record: Homo sapiens; assay: Selectivity ratio of IC50 for human CYP2C19 bound to yeast microsomal membrane to IC50 for human CYP1A1 bound to yeast microsomal membrane
[17] = Selectivity ratio of IC50 for human CYP2C19 expressed in HEK293 cells to IC50 for human CYP1A2 expressed in HEK293 cells
Homo sapiens [18] = species on record: Homo sapiens; assay: Selectivity ratio of IC50 for human CYP2C19 bound to yeast microsomal membrane to IC50 for human CYP1A2 bound to yeast microsomal membrane
Homo sapiens [19] = species on record: Homo sapiens; assay: Selectivity ratio of IC50 for human CYP2C19 bound to yeast microsomal membrane to IC50 for human CYP1B1 bound to yeast microsomal membrane

IC50 [10]: 1.5 µM
inhibition (INH) [10]: Dose-dependent effect
SMILES: COc1ccccc1/C=C/C(=O)c1ccc[nH]1
Ratio IC50 (Homo sapiens [1]): > 20
Ratio IC50 (Homo sapiens [2]): > 20
Ratio IC50 [3]: >20
Ratio IC50 [4]: >20
Ratio IC50 (Homo sapiens [5]): > 20
inhibition (INH) (Cytochrome P450 1A1): Active
Ratio IC50 (Homo sapiens [6]): > 20
Ratio IC50 (Homo sapiens [7]): > 20
Ratio IC50 [8]: >20
Ratio IC50 (Homo sapiens [9]): > 20
Ratio IC50 [11]: >20
Ratio IC50 [12]: >20
Ratio IC50 (Homo sapiens [13]): > 20
Ratio IC50 [14]: >20
Ratio IC50 [15]: >20
Ratio IC50 (Homo sapiens [16]): > 20
Ratio IC50 [17]: >20
Ratio IC50 (Homo sapiens [18]): > 20
Ratio IC50 (Homo sapiens [19]): > 20

IC50 [10]: 7.6 µM
inhibition (INH) [10]: Dose-dependent effect
SMILES: O=C(/C=C/c1ccccc1Cl)c1ccc[nH]1
Ratio IC50 (Homo sapiens [1]): > 20
Ratio IC50 (Homo sapiens [2]): > 20
Ratio IC50 [3]: >20
Ratio IC50 [4]: >20
Ratio IC50 (Homo sapiens [5]): > 20
Ratio IC50 (Homo sapiens [6]): > 20
Ratio IC50 (Homo sapiens [7]): > 20
Ratio IC50 [8]: >20
Ratio IC50 (Homo sapiens [9]): > 20
Ratio IC50 [11]: >20
Ratio IC50 [12]: >20
Ratio IC50 (Homo sapiens [13]): > 20
Ratio IC50 [14]: >20
Ratio IC50 [15]: >20
Ratio IC50 (Homo sapiens [16]): > 20
Ratio IC50 [17]: >20
Ratio IC50 (Homo sapiens [18]): > 20
Ratio IC50 (Homo sapiens [19]): > 20
